Patent US11555212B2, “Process for the production of sulfated phenolic compounds using modified Escerichia coli” (CysBio ApS, priority 2016, dated 2023)

Experiments:
[1] = target: T1, SULT1A1 from Rattus norvegicus (Rattus norvegicus, UniProt P17988); assay: Percent reduction of phenolic compounds by E. coli KRX expressing a sulfotransferase; assay type: cell-based; details: M9, 0.1 mM IPTG, 0.1% rhamnose, compound 50 μM, overnight 37° C.
T1 construct: 1, 3, 4, 5, and 6 were cloned amplified from liver tissue cDNA; expressed in transfected cells
Method: M9 medium containing 0.2% glucose, 0.1 mM IPTG, 0.1% rhamnose, and 100 μg/mL ampicillin was prepared.
The strains described above were grown in 2×YT medium with 100 μg/mL ampicillin overnight before their were used to inoculate the media by 50-fold dilution. The cultures were grown overnight with vigorous shaking at 37° C. […] The compounds were detected by UV absorbance except for 4-methylbelliferone, which was measured by fluorescence.

[2] = target: T2, SULT1A1 from rat (Rattus norvegicus) (Rattus norvegicus, UniProt P17988); assay: Percent reduction in concentration of phenolic compounds by E. coli expressing a sulfotransferase, compared to control strain; assay type: cell-based; details: compared to the control strain, M9, 1 mM IPTG, single substrate at start concentration of Table 14, overnight 37° C.; for Percent reduction in concentration, SULT1A1 + CysDNCQ: E. coli BL21(DE3)pLysS expressing SULT1A1 rat + CysDNCQ; for Percent reduction in concentration, SULT1A1: E. coli BL21(DE3)pLysS expressing SULT1A1 rat
T2 construct: 1, 3, 4, 5, and 6 were cloned amplified from liver tissue cDNA; expressed in transfected cells
Method: (§1) The concentration of p-courmaric acid (pHCA) and zosteric acid in the supernatant was quantified by high performance liquid chromatography (HPLC) and compared to chemical standards. HPLC was done on a Thermo setup using a HS-F5 column and mobile phases: 5 mM ammonium formate pH 4.0 (A) and acetonitrile (B) at 1.5 mL min-1, using a gradient elution starting at 5% B. From 0.5 min after injection to 7 min, the fraction of B increased linearly from 5% to 60%, and between 9.5 min and 9.6 the fraction of B decreased back to 5%, and remaining there until 12 min. pHCA and zosteric acid were quantified by measuring absorbance at 277 nm.
To further test the range of substrates that can be sulfated, we used strains carrying plasmids expressing SULT1A1 from rat (Rattus norvegicus) and SULT1E1 from chicken (Gallus gallus domesticus) (Example 1) cloned into the expression vector pETDuet-1, and cysDNCQ from E. coli cloned into expression vector pRSFDuet-1 (Example 2). The plasmids were introduced into the E. coli expression strain BL21(DE3)pLysS as described previously, selecting for transformants with appropriate antibiotics, namely 34 μg mL^−1 chloramphenicol for pLysS, 100 μg mL^−1 ampicillin for pETDuet-1-based vectors, and 100 μg mL^−1 kanamycin for pRSFDuet-1-based vectors. […] A control strain without a sulfotransferase gene or cysDNCQ operon was also examined.
The strains were precultured in 2×YT medium with appropriate antibiotics. 10 μL of these precultures were used to inoculate M9 media with 1 mM IPTG and none or a single substrate for sulfation. After overnight growth at 37° C., 300 rpm the supernatants were withdrawn and examined by HPLC as described in Example 1. The compounds were detected by UV absorbance.

[3] = tested on: SULT1E1 from chicken (Gallus gallus domesticus); assay: as above; assay type: cell-based; details: E. coli BL21(DE3)pLysS expressing SULT1E1 chicken, compared to the control strain; M9, 1 mM IPTG, single substrate at start concentration of Table 14; overnight 37° C.
[4] = target: T3, SULT1A1 Canis lupus familiaris (Canis lupus familiaris, UniProt Q29476); assay: Percent conversion of substrates by E. coli expressing a sulfotransferase; assay type: cell-based; details: E. coli BL21(DE3)pLysS expressing SULT1A1 Canis lupus familiaris; M9; pHCA 100 μM, resveratrol 95 μM or kaempferol 87 μM; overnight 37° C.
T3 construct: 1, 3, 4, 5, and 6 were cloned amplified from liver tissue cDNA; expressed in transfected cells; host or cells: E. coli BL21(DE3)pLysS
Method: as §1
(§2) Different sulfotransferases were examined for their substrate specificities against three substrates. We tested the sulfotransferases mentioned in example 1, as well as additional ones. The genes encoding these were cloned as described in example 1 using the primers shown in the table below from cDNA libraries of the respective organisms, except for the SULT1A1 from rat (Rattus norvegicus) codon-optimized for E. coli (described above). The resulting vectors were transformed into BL21(DE3)pLysS.
(§3) The resulting strains were grown in M9 medium containing either 100 μM pHCA, 95 μM resveratrol or 87 μM kaempferol. The cultures were grown overnight at 37° C., 300 rpm. The following day the supernatants were isolated and examined by HPLC as described in example 1.

SULT1A1 Equus caballus = assay: as above; assay type: cell-based; details: E. coli BL21(DE3)pLysS expressing SULT1A1 Equus caballus; M9; pHCA 100 μM, resveratrol 95 μM or kaempferol 87 μM; overnight 37° C.
Method: as §1, §2, §3

[5] = target: T4, SULT1A1 Rattus norvegicus (Rattus norvegicus, UniProt P17988); assay: as above; assay type: cell-based; details: M9, pHCA 100 μM, resveratrol 95 μM or kaempferol 87 μM, overnight 37° C.
T4 construct: 1, 3, 4, 5, and 6 were cloned amplified from liver tissue cDNA; expressed in transfected cells
Method: as §1, §2, §3

[6] = tested on: SULT1A1 Sus scrofa domesticus; assay: as above; assay type: cell-based; details: E. coli BL21(DE3)pLysS expressing SULT1A1 Sus scrofa domesticus; M9; pHCA 100 μM, resveratrol 95 μM or kaempferol 87 μM; overnight 37° C.
Method: as §1, §2, §3

SULT1A1 human = target: T5, SULT1A1 human (Homo sapiens, UniProt P50225, V223M); assay: as above; assay type: cell-based; details: E. coli BL21(DE3)pLysS expressing SULT1A1 human; M9; pHCA 100 μM, resveratrol 95 μM or kaempferol 87 μM; overnight 37° C.
T5 construct: expressed in transfected cells; host or cells: E. coli BL21(DE3)pLysS
Method: as §1, §2, §3

[7] = tested on: SULT1C1 Gallus gallus domesticus; assay: as above; assay type: cell-based; details: E. coli BL21(DE3)pLysS expressing SULT1C1 Gallus gallus domesticus; M9; pHCA 100 μM, resveratrol 95 μM or kaempferol 87 μM; overnight 37° C.
Method: as §1, §2, §3

[8] = tested on: SULT1E1 Gallus gallus domesticus; assay: as above; assay type: cell-based; details: E. coli BL21(DE3)pLysS expressing SULT1E1 Gallus gallus domesticus; M9; pHCA 100 μM, resveratrol 95 μM or kaempferol 87 μM; overnight 37° C.
Method: as §1, §2, §3

D. rerio SULT6B1 = assay: Percent reduction of compounds by E. coli KRX expressing distantly related sulfotransferases; assay type: cell-based, Danio rerio; details: 100 μM resveratrol, 20 μM kaempferol or 3-hydroxy-4-methoxycinnamic acid
Excerpt: The gene (sequence SEQ ID NO: 102) encoding SULT6B1 (sequence SEQ ID NO: 103) from Danio rerio was codon-optimized for E. coli and synthesized as in example 1.
(§4) The genes were cloned into the vector pETDuet-1 as described in Example 1, and the resulting vectors were transformed into E. coli KRX (obtained from Promega).

[9] = tested on: H. ochraceum DSM 14365 Hoch_6098; assay: as above; assay type: cell-based, Haliangium ochraceum DSM 14365; details: E. coli KRX expressing H. ochraceum DSM 14365 Hoch_6098; 100 μM resveratrol, 20 μM kaempferol or 50 μL 3-hydroxy-4-methoxycinnamic acid
Excerpt: The gene (sequence SEQ ID NO: 104) encoding Hoch_6098 (sequence SEQ ID NO: 105) from the bacterium Haliangium ochraceum DSM 14365 was codon-optimized for E. coli and synthesized as in example 1.
as §4

D. rerio SULT1ST1 = target: T6, D. rerio SULT1ST1 (Danio rerio, UniProt Q6PH37); assay: as above; assay type: cell-based; details: 100 μM resveratrol, 20 μM kaempferol or 3-hydroxy-4-methoxycinnamic acid
T6 construct: expressed in transfected cells; host or cells: E. coli KRX (Promega), vector pETDuet-1
T6 sequence (Q6PH37 1-299): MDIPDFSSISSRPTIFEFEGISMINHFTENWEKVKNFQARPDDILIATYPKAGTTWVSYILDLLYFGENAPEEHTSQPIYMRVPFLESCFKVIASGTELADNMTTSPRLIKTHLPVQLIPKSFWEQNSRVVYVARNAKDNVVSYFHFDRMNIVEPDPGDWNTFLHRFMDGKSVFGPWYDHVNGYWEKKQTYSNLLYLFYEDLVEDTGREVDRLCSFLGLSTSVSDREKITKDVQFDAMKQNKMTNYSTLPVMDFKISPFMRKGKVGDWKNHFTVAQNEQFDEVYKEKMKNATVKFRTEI

[10] = E. coli BL21(DE3)pLysS expressing SULT1A1 Rattus norvegicus (Codon-optimized for E. coli)
[11] = E. coli BL21(DE3)pLysS expressing SULT1A1 Rattus norvegicus

T4 sequence (P17988 whole entry): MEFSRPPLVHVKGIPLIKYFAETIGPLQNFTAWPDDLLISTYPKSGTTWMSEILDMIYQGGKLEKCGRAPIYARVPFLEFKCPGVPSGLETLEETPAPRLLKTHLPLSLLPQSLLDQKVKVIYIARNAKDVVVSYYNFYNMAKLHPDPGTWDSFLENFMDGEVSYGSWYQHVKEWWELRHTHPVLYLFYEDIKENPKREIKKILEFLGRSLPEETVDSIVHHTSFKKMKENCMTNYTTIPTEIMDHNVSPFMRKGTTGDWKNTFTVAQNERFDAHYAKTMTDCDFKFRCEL
T2 sequence (P17988 whole entry): as above
T1 sequence (P17988 whole entry): as above
T3 sequence (Q29476 whole entry): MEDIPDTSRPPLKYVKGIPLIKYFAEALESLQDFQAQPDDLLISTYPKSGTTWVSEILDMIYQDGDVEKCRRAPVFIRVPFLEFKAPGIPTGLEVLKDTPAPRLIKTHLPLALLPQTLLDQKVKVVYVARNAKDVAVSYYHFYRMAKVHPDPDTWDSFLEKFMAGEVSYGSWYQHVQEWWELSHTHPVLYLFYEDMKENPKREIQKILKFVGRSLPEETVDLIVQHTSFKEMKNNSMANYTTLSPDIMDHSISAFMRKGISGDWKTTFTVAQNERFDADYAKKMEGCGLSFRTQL
T5 sequence (P50225 whole entry V223M): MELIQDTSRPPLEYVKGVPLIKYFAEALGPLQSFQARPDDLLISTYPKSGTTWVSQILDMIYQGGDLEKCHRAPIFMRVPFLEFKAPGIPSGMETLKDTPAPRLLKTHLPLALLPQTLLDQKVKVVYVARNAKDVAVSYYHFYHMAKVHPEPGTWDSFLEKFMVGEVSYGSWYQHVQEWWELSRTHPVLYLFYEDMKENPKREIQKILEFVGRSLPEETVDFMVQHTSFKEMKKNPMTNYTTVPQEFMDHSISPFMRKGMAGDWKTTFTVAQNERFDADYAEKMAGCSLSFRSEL

| Molecule | Percent reduction, SULT1A1 [1] [%] | Percent reduction in concentration, SULT1A1 + CysDNCQ [2] [%] | Percent reduction in concentration, SULT1A1 [2] [%] | Percent reduction in concentration, SULT1E1 [3] [%] | also measured |
| --- | --- | --- | --- | --- | --- |
| C=Cc1ccc(O)cc1 [4-vinylphenol] | 100 | – | – | – | – |
| O=C(O)C(=O)Cc1ccc(O)cc1 [4-Hydroxyphenylpyruvic acid, 4-hydroxyphenylpyruvic acid] | – | 64 | 47 | 100 | – |
| Cc1cc(=O)oc2cc(O)ccc12 [4-methylbelliferone] | 100 | – | – | – | – |
| CC(=O)Nc1ccc(O)cc1 [4-acetamidophenol, reference compound] | – | 30 | 24 | 10 | – |
| COc1ccc(C=CC(=O)O)cc1O [3-Hydroxy-4-methoxycinnamic acid] | – | 62 | 51 | – | – |
| O=c1c(O)c(-c2ccc(O)cc2)oc2cc(O)cc(O)c12 [kaempferol, Kaempferol] | – | – | – | – | Percent conversion of the substrate [4]: 60%; Percent conversion of the substrate (SULT1A1 Equus caballus): 96%; Percent conversion of the substrate [5, 10]: 38%; Percent conversion of the substrate [5, 11]: 95%; Percent conversion of the substrate [6]: 45%; Percent conversion of the substrate (SULT1A1 human): 97%; Percent conversion of the substrate [7]: 80%; Percent conversion of the substrate [8]: 47%; Percent reduction (D. rerio SULT6B1): 44%; Percent reduction [9]: 100% |
| COc1cc(C(=O)O)ccc1O [Vanillic acid, vanillic acid] | – | 39 | 33 | 0 | – |
| O=C(O)c1ccc(O)cc1 [4-hydroxybenzoic acid] | – | 6 | 5 | 4 | – |
| Oc1ccc(C=Cc2cc(O)cc(O)c2)cc1 [resveratrol] | – | – | – | – | Percent conversion of the substrate [4]: 61%; Percent conversion of the substrate (SULT1A1 Equus caballus): 100%; Percent conversion of the substrate [5, 10]: 58%; Percent conversion of the substrate [5, 11]: 93%; Percent conversion of the substrate [6]: 88%; Percent conversion of the substrate (SULT1A1 human): 36%; Percent conversion of the substrate [7]: 100%; Percent conversion of the substrate [8]: 100%; Percent reduction (D. rerio SULT1ST1): 80%; Percent reduction [9]: 7% |
| O=c1cc(-c2ccc(O)cc2)oc2cc(O)cc(O)c12 [Apigenin] | – | 99 | 41 | 98 | – |
| O=C1C[C@@H](c2ccc(O)cc2)Oc2cc(O)cc(O)c21 [Naringenin] | 60 | – | – | – | – |
| O=C(O)CCc1ccc(O)cc1 [3-(4-Hydroxyphenyl)propionic acid] | – | 7 | 3 | 1 | – |
| 4-ethylguaiacol | 50 | – | – | – | – |
| O=c1cc(-c2ccc(O)c(O)c2)oc2cc(O)cc(O)c12 [Luteolin] | – | 37 | 27 | 0 | – |
| COc1cc(/C=C/C(=O)O)cc(OC)c1O [Sinapic acid, sinapic acid] | 31 | – | – | – | – |
| CCc1ccc(O)cc1 [4-ethylphenol] | 100 | – | – | – | – |
| O=c1c(O)c(-c2ccc(O)c(O)c2)oc2cc(O)ccc12 [fisetin] | – | 100 | 98 | 98 | – |
| O=c1c(O)c(-c2ccc(O)c(O)c2)oc2cc(O)cc(O)c12 [Quercetin] | – | 81 | 75 | 74 | – |
| COc1cc(/C=C/C(=O)O)ccc1O [Ferulic acid, ferulic acid] | – | 100 | 72 | 67 | – |
| O=[N+]([O-])c1ccc(O)cc1 [4-nitrophenol] | 30 | – | – | – | – |
